Results on 27 compounds are retold here after EP4800016A1, “METTL3 INHIBITOR” (Hangzhou Bangshun Pharmaceutical Co., Ltd., priority 2023, dated 2025).

T1 sequence (Q86U44 whole entry): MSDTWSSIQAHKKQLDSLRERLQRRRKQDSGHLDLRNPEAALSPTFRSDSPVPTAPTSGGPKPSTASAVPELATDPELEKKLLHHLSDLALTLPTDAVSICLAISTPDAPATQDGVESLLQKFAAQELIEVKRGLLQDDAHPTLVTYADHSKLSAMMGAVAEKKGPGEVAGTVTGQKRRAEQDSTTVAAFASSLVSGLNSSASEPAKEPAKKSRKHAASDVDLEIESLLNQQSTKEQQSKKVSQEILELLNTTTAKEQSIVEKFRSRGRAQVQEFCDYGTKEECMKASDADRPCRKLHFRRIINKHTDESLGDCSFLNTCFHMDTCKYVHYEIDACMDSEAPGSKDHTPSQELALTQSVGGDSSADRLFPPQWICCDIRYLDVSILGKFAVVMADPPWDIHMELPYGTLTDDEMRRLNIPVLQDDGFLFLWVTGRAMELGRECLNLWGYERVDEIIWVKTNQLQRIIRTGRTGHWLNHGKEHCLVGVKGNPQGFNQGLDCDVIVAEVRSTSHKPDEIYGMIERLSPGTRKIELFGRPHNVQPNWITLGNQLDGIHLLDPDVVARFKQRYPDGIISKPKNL
T1 sequence (Q9HCE5 whole entry partner): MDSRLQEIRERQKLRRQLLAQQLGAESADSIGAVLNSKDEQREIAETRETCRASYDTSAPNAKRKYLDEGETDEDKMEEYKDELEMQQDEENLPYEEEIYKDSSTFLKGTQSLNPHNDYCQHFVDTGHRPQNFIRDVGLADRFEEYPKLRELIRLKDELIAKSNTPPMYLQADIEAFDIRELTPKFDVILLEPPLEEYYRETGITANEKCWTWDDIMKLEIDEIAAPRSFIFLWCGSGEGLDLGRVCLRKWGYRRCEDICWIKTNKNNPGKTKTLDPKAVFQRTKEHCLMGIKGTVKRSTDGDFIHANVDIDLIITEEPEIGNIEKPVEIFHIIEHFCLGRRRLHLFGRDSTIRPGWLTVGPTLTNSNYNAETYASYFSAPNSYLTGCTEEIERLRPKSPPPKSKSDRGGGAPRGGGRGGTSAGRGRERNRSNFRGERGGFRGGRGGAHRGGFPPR

This test addresses T1, METTL3/14 (Homo sapiens, UniProt Q86U44).
T1 construct: purchased active motif 31570
Nature of the test: METTL3/14 methyltransferase activity assay (HTRF). Format: biochemical. The note with it: 10 concentrations, 3-fold dilution from 10 µM. How it is done:
The final initial concentration of the compound was 10 µM, with 3-fold serial dilution to give a total of 10 concentrations. 100 nL of the compound was transferred to a 384-well plate and centrifuged at 1000 RPM. 2.5 µL of METTL3/14 (active motif, Cat No. 31570) was added to the test wells and incubated at 25°C for 10 min. 2.5 µL of METTL3-Biotin & SAM (GenScript) was added to the test wells andincubated at 25°C for 60 min. 2.5 µL of YTHDF1 (active motif, Cat No. 31608) was added to the test wells and centrifuged at 1000 RPM. 2.5 µL of Streptavidin-Tb (Perkin Elmer Cat No. 61SATLB) & Flag-mede (Perkin Elmer Cat No. 61FG2DLA) was added to the test wells and centrifuged at 1000 RPM. Incubated at 25°C for 60 min. HTRF was measured using a Plate reader. The results of each compound are shown in Table 1, where A+indicates <10nM, A indicates 10-100nM, B indicates 100-1000nM, and C indicates >1000nM.
Background: In TR-FRET formats the signal depends on donor and acceptor labels being close together.
The compound `O=C(NCc1ccc2cc(CNCC3CCC3)[nH]c2c1)c1cn2ncccc2n1` [Example 1, N-((2-(((Cyclobutylmethyl)amino)methyl)-1H-indol-6-yl)methyl)imidazo[1,2-b]pyridazine-2-carboxamide] displayed an IC50 of 10 to 100 nM.

`O=C(NCc1ccc2cc(CNCC3CCC3)[nH]c2c1)c1cc2ncccn2n1` [Example 2, N-((2-(((Cyclobutylmethyl)amino)methyl)-1H-indol-6-yl)methyl)pyrazolo[1,5-a]pyrimidine-2-carboxamide] showed a half-inhibitory concentration (IC50) of 10 to 100 nM. `O=C(NCc1ccc2cc(CNCC3CCC3)[nH]c2c1)c1cnn2cccnc12` [Example 3, N-((2-(((Cyclobutylmethyl)amino)methyl)-1H-indol-6-yl)methyl)pyrazolo[1,5-a]pyrimidine-3-carboxamide] displayed an IC50 of 10 to 100 nM. As to `O=C(NCc1ccc2cc(CNCC3CCC3)[nH]c2c1)c1cn2nccc(N3CCOCC3)c2n1` [Example 8, N-((2-(((Cyclobutylmethyl)amino)methyl)-1H-indol-6-yl)methyl)-8-morpholinoimidazo[1,2-b]pyridazine-2-carboxamide], the IC50 lay within 100 to 1000 nM. The same measure for `O=C(NCc1ccc2cc(CNCC3CCC3)[nH]c2c1)c1ccn(Cc2ccccc2)c(=O)c1` [Example 11, 1-Benzyl-N-((2-(((cyclobutylmethyl)amino)methyl)-1H-indol-6-yl)methyl)-2-oxo-1,2-dihydropyridine-4-carboxamide]: 10 to 100 nM; for `CNc1nc(C(=O)NCc2ccc3cc(CNCC4CCC4)[nH]c3c2)cn2nccc12` [Example 13, N-((2-(((Cyclobutylmethyl)amino)methyl)-1H-indol-6-yl)methyl)-4-(methylamino)pyrazolo[1,5-a]pyrazine-6-carboxamide]: 10 to 100 nM. The same measure for `COc1ccc(CNc2nc(C(=O)NCc3ccc4cc(CNCC5CCC5)[nH]c4c3)cn3nccc23)cc1` [Example 14, N-((2-(((Cyclobutylmethyl)amino)methyl)-1H-indol-6-yl)methyl)-4-((4-methoxybenzyl)amino)pyrazolo[1,5-a]pyrazine-6-carboxamide]: 10 to 100 nM; for `O=C(NCc1ccc2cc(CNCC3CCC3)[nH]c2c1)c1cn2nccc2c(N2CCCC2)n1` [Example 15, N-((2-(((Cyclobutylmethyl)amino)methyl)-1H-indol-6-yl)methyl)-4-(pyrrolidin-1-yl)pyrazolo[1,5-a]pyrazine-6-carboxamide]: 100 to 1000 nM; for `O=C(NCc1cc2ccc(CNCC3CCC3)cc2[nH]1)c1cc(=O)n2ccccc2n1` [Example 21, N-((6-(((Cyclobutylmethyl)amino)methyl)-1H-indol-2-yl)methyl)-4-oxo-4H-pyrido[1,2-a]pyrimidine-2-carboxamide]: 100 to 1000 nM. Compound `O=C(NCc1ccc2cc(CN3CCC(F)(F)CC3)[nH]c2c1)c1cc(=O)n2cc3c(cc2n1)OCCO3` [Example 27] had a half-maximal inhibitory concentration (IC50) of 10 to 100 nM.

`O=C(NCc1ccc2cc(CNCC3CC(=C(F)F)C3)[nH]c2c1)c1cc(=O)n2cc3c(cc2n1)OCCO3` (stereo not drawn) [Example 28, N-((2-((((3-(Difluoromethylene)cyclobutyl)methyl)amino)methyl)-1H-indol-6-yl)methyl)-9-oxo-2,3-dihydro-9H-[1,4]dioxino[2',3':4,5]pyrido[1,2-a]pyrimidine-7-carboxamide] registered an IC50 of 100 to 1000 nM.

On to `O=C(NCc1ccc2cc(CN3CCC(F)(F)CC3)[nH]c2c1)c1cc(=O)n2cc3c(cc2n1)OCO3` [Example 29, N-((2-((4,4-Difluoropiperidin-1-yl)methyl)-1H-indol-6-yl)methyl)-8-oxo-8H-[1,3]dioxolo[4',5':4,5]pyrido[1,2-a]pyrimidine-6-carboxamide], for which the half-inhibitory concentration (IC50) is 10 to 100 nM. `O=C(NCc1ccc2cc(CNCC3CCC3)[nH]c2c1)c1cc(=O)n2cc3c(cc2n1)OC(F)(F)O3` [Example 30, N-((2-(((Cyclobutylmethyl)amino)methyl)-1H-indol-6-yl)methyl)-2,2-difluoro-8-oxo-8H-[1,3]dioxolo[4',5':4,5]pyrido[1,2-a]pyrimidine-6-carboxamide] came in with a half-inhibitory concentration (IC50) of 10 to 100 nM.

In the case of `O=C(NCc1cc2[nH]c(CNCC3CCC3)cc2s1)c1cc(=O)n2cc3c(cc2n1)OCCO3` [Example 31, N-((5-(((cyclobutylmethyl)amino)methyl)-4H-thieno[3,2-b]pyrrol-2-yl)methyl)-9-oxo-2,3-dihydro-9H-[1,4]dioxino[2',3':4,5]pyrido[1,2-a]pyrimidine-7-carboxamide], the half-maximal inhibitory concentration (IC50) is 10 to 100 nM. With `O=C(NCc1ccc2cc(CN3CCc4ccccc4C3)[nH]c2c1)c1cc(=O)n2cc3c(cc2n1)OCO3` [Example 34, N-((2-((3,4-dihydroisoquinolin-2(1H)-yl)methyl)-1H-indol-6-yl)methyl)-8-oxo-8H-[1,3]dioxolo[4',5':4,5]pyrido[1,2-a]pyrimidine-6-carboxamide] the figure was 10 to 100 nM; with `O=C(NCc1ccc2cc(CNC3CCC(F)(F)CC3)[nH]c2c1)c1cc(=O)n2cc3c(cc2n1)OCO3` [Example 37, N-((2-(((4,4-Difluorocyclohexyl)amino)methyl)-1H-indol-6-yl)methyl)-8-oxo-8H-[1,3]dioxolo[4',5':4,5]pyrido[1,2-a]pyrimidine-6-carboxamide], 10 to 100 nM. The same measure for `O=C(NCc1ccc2cc(CNC3CC(F)(F)C3)[nH]c2c1)c1cc(=O)n2cc3c(cc2n1)OCO3` [Example 39, N-((2-(((3,3-Difluorocyclobutyl)amino)methyl)-1H-indol-6-yl)methyl)-8-oxo-8H-[1,3]dioxolo[4',5':4,5]pyrido[1,2-a]pyrimidine-6-carboxamide]: 10 to 100 nM.

For the compound `O=C(NCc1ccc2cc(CNCC3(C(F)(F)F)CC3)[nH]c2c1)c1cc(=O)n2cc3c(cc2n1)OCO3` [Example 40, 8-Oxo-N-((2-((((1-(trifluoromethyl)cyclopropyl)methyl)amino)methyl)-1H-indol-6-yl)methyl)-8H-[1,3]dioxolo[4',5':4,5]pyrido[1,2-a]pyrimidine-6-carboxamide], the half-maximal inhibitory concentration (IC50) fell in the range of 10 to 100 nM. The compound `O=C(NC1(c2ccc3cc(CNCC4CCC4)[nH]c3c2)CC1)c1cc(=O)n2cc3c(cc2n1)OCO3` [Example 42, N-(1-(2-(((Cyclobutylmethyl)amino)methyl)-1H-indol-6-yl)cyclopropyl)-8-oxo-8H-[1,3]dioxolo[4',5':4,5]pyrido[1,2-a]pyrimidine-6-carboxamide] returned an IC50 of 100 to 1000 nM. `O=C(NC1(c2ccc3cc(CNCC4CCC4)[nH]c3c2)CC1)c1cc(=O)n2cc3c(cc2n1)OCCO3` [Example 43, N-(1-(2-(((Cyclobutylmethyl)amino)methyl)-1H-indol-6-yl)cyclopropyl)-9-oxo-2,3-dihydro-9H-[1,4]dioxino[2',3':4,5]pyrido[1,2-a]pyrimidine-7-carboxamide] displayed a concentration for half-maximal inhibition (IC50) of 10 to 100 nM.

In turn, `O=C(NCc1ccc2cc(CNCC3(C(F)(F)F)CCC3)[nH]c2c1)c1cc(=O)n2cc3c(cc2n1)OCO3` [Example 56, 8-Oxo-N-((2-((((1-(trifluoromethyl)cyclobutyl)methyl)amino)methyl)-1H-indol-6-yl)methyl)-8H-[1,3]dioxolo[4',5':4,5]pyrido[1,2-a]pyrimidine-6-carboxamide] showed a half-maximal inhibitory concentration (IC50) of 10 to 100 nM. The same measure for `O=C(NCc1ccc2cc(CNCC3CC4(CCC4)C3)[nH]c2c1)c1cc(=O)n2cc3c(cc2n1)OCO3` [Example 58, 8-Oxo-N-((2-(((spiro[3.3]heptan-2-ylmethyl)amino)methyl)-1H-indol-6-yl)methyl)-8H-[1,3]dioxolo[4',5':4,5]pyrido[1,2-a]pyrimidine-6-carboxamide]: 10 to 100 nM. `CN1CCOc2cnn3cc(C(=O)NCc4ccc5cc(CNCC6CCC6)[nH]c5c4)nc1c23` [Example 59, N-((2-(((Cyclobutylmethyl)amino)methyl)-1H-indol-6-yl)methyl)-6-methyl-7,8-dihydro-6H-9-oxa-2,2a,5,6-tetraazabenzo[cd]azulene-4-carboxamide] displayed an IC50 of 100 to 1000 nM. With `O=C(NCc1ccc2cc(CNCC34CCCC3C4)[nH]c2c1)c1cc(=O)n2cc3c(cc2n1)OCO3` (stereo not drawn) [Example 60, N-((2-(((Bicyclo[3.1.0]hexan-1-ylmethyl)amino)methyl)-1H-indol-6-yl)methyl)-8-oxo-8H-[1,3]dioxolo[4',5':4,5]pyrido[1,2-a]pyrimidine-6-carboxamide] the figure was < 10 nM.

The compound `O=C(NCc1ccc2cc(CNCC3CCC3)[nH]c2c1)c1cn2ncc3c2c(n1)OCCO3` [Example 61, N-((2-(((Cyclobutylmethyl)amino)methyl)-1H-indol-6-yl)methyl)-7,8-dihydro-6,9-dioxa-2,2a,5-triazabenzo[cd]azulene-4-carboxamide] registered a half-inhibitory concentration (IC50) of 100 to 1000 nM. Consider `[2H]C([2H])(NCC1CCC1)c1cc2ccc(CNC(=O)c3cc(=O)n4cc5c(cc4n3)OCO5)cc2[nH]1` [Example 62, N-((2-(((cyclobutylmethyl)amino)methyl-d2)-1H-indol-6-yl)methyl)-8-oxo-8H-[1,3]dioxolo[4',5':4,5]pyrido[1,2-a]pyrimidine-6-carboxamide], for which the IC50 is < 10 nM. With `O=C(NCc1ccc2cc(CNCC34CCCC3C4)[nH]c2c1)c1cc(=O)n2cc3c(cc2n1)OCCO3` (stereo not drawn) [Example 63, N-((2-(((Bicyclo[3.1.0]hexan-1-ylmethyl)amino)methyl)-1H-indol-6-yl)methyl)-9-oxo-2,3-dihydro-9H-[1,4]dioxino[2',3':4,5]pyrido[1,2-a]pyrimidine-7-carboxamide], the IC50 was < 10 nM.

As a reminder, the IC50 is the midpoint of a concentration-inhibition curve. Read a high IC50 as weaker potency.
